The results in this text go back to patent publication US20260199273A1, “Compounds for the Treatment of Neuromuscular Disorders” (NMD PHARMA A/S, priority 2022, published 2026).

Assay [1] relates to isolated rat soleus nerve-muscle preparations. Nature of the assay: Measurement of force in an in vitro model: recovery of nerve-stimulated contractile force after tubocurarine. The following applies: 40 min, after 40 mins of compound exposure, tubocurarine (115 nM) for 90 minutes, read-out: Point increase (%): percentage increase of initial force that was restored; for activation at 10 µM: 10 μM of test compound; for activation at 50 µM: 50 μM of test compound. As for the experimental part:
In one aspect, the invention relates to a method for recovery of force in muscles with neuromuscular dysfunction, said method comprising administering a compound or a composition as defined herein to a subject in need thereof. The term “recovery of force in muscles with neuromuscular dysfunction” as used herein refers to the ability of a compound to recover contractile force in nerve-stimulated healthy rat muscle after exposure to submaximal concentration (115 nM) of tubocurarine for 90 minutes.
Recovery of force is quantified as the percentage of the force prior to tubocurarine that is recovered after addition of the compound. In one embodiment, said recovery of force is >5%, such as >10%, such as >15%, such as >20%, such as >25%, such as >30%, such as >35%.
The current disclosure relates to compounds that inhibit CIC-1 ion channels and increase muscle excitability and thereby improve muscle function in clinical conditions where muscle activation is failing. Such conditions result in loss of contractile function of skeletal muscle, weakness and excessive fatigue. In this series of experiments the compounds were tested for their ability to restore contractile function of isolated rat muscle when the neuromuscular transmission had been compromised akin to neuromuscular disorders.
Experimentally, soleus muscles from 4-5 week old rats were isolated with the motor nerve remaining attached. The nerve-muscle preparations were mounted in experimental setups that enabled electrical stimulation of the motor nerve. Stimulation of the motor nerve led to activation of the muscle fibres and ensuing force production that was recorded. The nerve-muscle preparations were also in these experiments incubated in the standard Krebs Ringer (see example 15) and the solution was heated to 30° C. and continuously equilibrated with a mixture of 95% O2 and 5% CO2, pH ~7.4.
After mounting the nerve-muscle preparation in the experimental setup, the contractile function of the muscle was initially assessed under the control conditions. Sub-maximal concentration of tubocurarine (115 nM), an acetylcholine receptor antagonist, was then added to the experimental bath to impose partial inhibition of the ability of the motor nerve to activate the muscle fibres. The experimental condition mimics the failing neuromuscular transmission in a range of neuromuscular disorders. After addition of tubocurarine the contractile force declined over the next 90 minutes to 10-50% of the control force. The test compound was then added to obtain the required compound concentration in the bath and the contractile force recovered was measured. To quantify the ability of the compound to restore force the percentage of the initial force that was restored was determined after 40 mins of compound exposure and the point increase is reported in Tables 3 to 7.

For a further assay, the target named is T1, CIC-1 ion channel (Rattus norvegicus, UniProt P35524).
T1 construct: from tissue; host or cells: whole soleus muscle of 12-14 week old Wistar rats
T1 sequence (P35524 1-994): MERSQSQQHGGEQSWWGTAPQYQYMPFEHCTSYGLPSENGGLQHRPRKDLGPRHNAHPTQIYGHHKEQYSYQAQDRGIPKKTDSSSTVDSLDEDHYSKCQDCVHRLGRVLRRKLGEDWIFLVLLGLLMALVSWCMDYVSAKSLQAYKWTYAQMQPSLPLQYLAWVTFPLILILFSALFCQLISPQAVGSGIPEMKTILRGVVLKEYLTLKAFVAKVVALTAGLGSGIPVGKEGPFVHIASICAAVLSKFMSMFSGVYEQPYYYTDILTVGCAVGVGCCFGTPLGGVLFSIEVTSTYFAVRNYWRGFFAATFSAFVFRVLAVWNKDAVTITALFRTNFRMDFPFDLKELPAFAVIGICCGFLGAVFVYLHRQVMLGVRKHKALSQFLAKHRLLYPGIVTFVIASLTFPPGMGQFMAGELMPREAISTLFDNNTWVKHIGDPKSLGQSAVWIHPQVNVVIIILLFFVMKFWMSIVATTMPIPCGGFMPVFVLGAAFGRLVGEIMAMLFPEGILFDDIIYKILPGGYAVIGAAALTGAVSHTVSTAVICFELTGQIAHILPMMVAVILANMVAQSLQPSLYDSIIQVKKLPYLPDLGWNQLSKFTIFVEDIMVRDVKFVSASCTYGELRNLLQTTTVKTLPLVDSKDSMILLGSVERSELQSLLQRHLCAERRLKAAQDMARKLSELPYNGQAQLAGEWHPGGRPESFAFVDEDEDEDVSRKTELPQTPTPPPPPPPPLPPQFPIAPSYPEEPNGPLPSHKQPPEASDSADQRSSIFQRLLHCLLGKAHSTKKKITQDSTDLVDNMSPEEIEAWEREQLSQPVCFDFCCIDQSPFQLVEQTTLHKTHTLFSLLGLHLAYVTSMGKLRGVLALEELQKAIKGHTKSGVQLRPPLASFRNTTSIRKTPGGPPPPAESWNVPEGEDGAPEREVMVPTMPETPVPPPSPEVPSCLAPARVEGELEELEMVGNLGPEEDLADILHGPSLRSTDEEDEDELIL
Nature of the assay: Electrophysiological measurement of compound inhibition of CIC-1 in rat muscle (Gm in soleus fibres, three micro-electrodes). The note with it: Gm in individual fibres of whole rat soleus muscles, approx. 30° C., four increasing compound concentrations; read-out: Potency Range (EC50, inhibition of CIC-1 ion channel). The assay is classed as cell-based. The protocol: Apparent CIC-1 affinity was reported by the concentration of compound at which 50% of the compound's full inhibition of CIC-1 was observed (EC50) (see also WO2019/115777).
Experimentally, Gm was measured in individual fibres of whole rat soleus muscles using a three micro-electrodes technique described in this example and in full detail elsewhere (Riisager et al., Determination of cable parameters in skeletal muscle fibres during repetitive firing of action potentials. Journal of Physiology, 2014, 592, 4417-4429). Briefly, intact rat soleus muscles were dissected out from 12-14 week old Wistar rats and placed in an experimental chamber that was perfused with a standard Krebs Ringer solution containing 122 mM NaCl, 25 mM NaHCO3, 2.8 mM KCl, 1.2 mM KH2PO4, 1.2 mM MgSO4, 1.3 mM CaCl2, 5.0 mM D-glucose. During experiments, the solution was kept at approx. 30° C. and continuously equilibrated with a mixture of 95% O2 and 5% CO2, pH ~7.4. The experimental chamber was placed in Nikon upright microscope that was used to visualize individual muscle fibres and the three electrodes (glass pipettes filled with 2 M potassium citrate). For Gm measurements, the electrodes were inserted into the same fibre with known inter-electrode distances of 0.35-0.5 mm (V1-V2, X1) and 1.1-1.5 mm (V1-V3, X3). The membrane potential of the impaled muscle fibre was recorded by all electrodes. Two of the electrodes were furthermore used to inject 50 ms current pulses of −30 nA. […] The steady state voltage deflection at each distance was divided by the magnitude of current injected (−30 nA) and the resulting transfer resistances were plotted against inter-electrode distance and the data was fitted to a mono-exponential function from which Gm could be calculated using linear cable theory.
To establish a dose response relationship, Gm was first determined in 10 muscle fibres in the absence of compound and then at four increasing compound concentrations with Gm determinations in 5-10 fibres at each concentration. The average Gm values at each concentration were plotted against compound concentration and the data was fitted to sigmoidal function to obtain an EC5o value.

For orientation: EC50 means the concentration giving half of the maximal effect. Turning to `O=C(O)c1c(F)c(Cl)cc2c1NCCC2` [Compound A-41, 6-Chloro-7-fluoro-1,2,3,4-tetrahydroquinoline-8-carboxylic acid], the activation at 10 µM in assay [1] came out at 49%. Moreover, the EC50 on CIC-1 ion channel is 2000 to 10000 nM.

In the case of `COc1c(Cl)cc2c(c1C(=O)O)CCCC2` [Compound A-8, 3-Chloro-2-methoxy-5,6,7,8-tetrahydronaphthalene-1-carboxylic acid], the activation at 10 µM in assay [1] was 50%. For the same compound, the EC50 at CIC-1 ion channel lay in the range of 200 to 2000 nM.

As to `O=C(O)c1c(F)c(Cl)cc2c1N(Cc1ccsc1)CCC2` [Compound A-70, 6-Chloro-7-fluoro-1-[(3-thienyl)methyl]-1,2,3,4-tetrahydro-8-quinolinecarboxylic acid], the activation at 10 µM in assay [1] is 25%. The EC50 on CIC-1 ion channel was in the range of 200 to 2000 nM.

On to `Cc1c(F)cc2c(c1C(=O)O)CCCC2` [Compound A-52, 3-Fluoro-2-methyl-5,6,7,8-tetrahydronaphthalene-1-carboxylic acid], for which, in assay [1], the activation at 10 µM is 18%. Further, the EC50 at CIC-1 ion channel is 2000 to 10000 nM.

For the compound `CCc1c(Cl)cc2c(c1C(=O)O)CCC2` [Compound A-13, 6-Chloro-5-ethyl-2,3-dihydro-1H-indene-4-carboxylic acid], the activation at 50 µM in assay [1] was found to be 26%. Also, the EC50 on CIC-1 ion channel lay within 10000 to 20000 nM.

For `Cc1cc2c(c(C(=O)O)c1Cl)C1CCC2C1` (stereo not drawn) [Compound A-20, 4-chloro-5-methyltricyclo[6.2.1.0^2,7]undeca-2,4,6-triene-3-carboxylic acid], the activation at 50 µM in assay [1] is 38%. In addition, the EC50 at CIC-1 ion channel is 2000 to 10000 nM.

Regarding `O=C(O)c1c(Cl)c(F)cc2c1OCCC2` [Compound A-37, 7-Chloro-6-fluoro-3,4-dihydro-2H-1-benzopyran-8-carboxylic acid], the activation at 50 µM in assay [1] came out at 48%. Moreover, at CIC-1 ion channel, the EC50 is 2000 to 10000 nM.

On to `CSc1c(Cl)cc2c(c1C(=O)O)CCC2` [Compound A-23, 6-Chloro-5-(methylsulfanyl)-2,3-dihydro-1H-indene-4-carboxylic acid], for which the activation at 50 µM in assay [1] was 44%. At CIC-1 ion channel, the EC50 lay in the range of 2000 to 10000 nM.

As to `Cc1c(Cl)cc2c(c1C(=O)O)CCCCC2` [Compound A-33, 3-Chloro-2-methyl-6,7,8,9-tetrahydro-5H-benzo[7]annulene-1-carboxylic acid], in assay [1], the activation at 10 µM is 17%. The EC50 at CIC-1 ion channel lay in the range of 2000 to 10000 nM.

Take `COc1c(Cl)cc2c(c1C(=O)O)CCCCC2` [Compound A-22, 3-Chloro-2-methoxy-6,7,8,9-tetrahydro-5H-benzo[7]annulene-1-carboxylic acid]: in assay [1], the activation at 10 µM turned out to be 33%. Also, the EC50 on CIC-1 ion channel fell in the range of 200 to 2000 nM.

Take `Cc1cc2c(c(C(=O)O)c1F)OCCC2` [Compound A-50, 7-fluoro-6-methyl-3,4-dihydro-2H-1-benzopyran-8-carboxylic acid]: the activation at 50 µM in assay [1] was found to be 51%. For the same compound, the EC50 on CIC-1 ion channel lay in the range of 2000 to 10000 nM.

`O=C(O)c1c2c(cc(Cl)c1OC(F)F)CCCC2` [Compound A-25, 3-Chloro-2-(difluoromethoxy)-5,6,7,8-tetrahydronaphthalene-1-carboxylic acid]: the activation at 10 µM in assay [1] is 43%. At CIC-1 ion channel, the EC50 lay within 200 to 2000 nM.

`O=C(O)c1c(Cl)c(Cl)cc2c1CCCC2` [Compound A-30, 2,3-Dichloro-5,6,7,8-tetrahydronaphthalene-1-carboxylic acid]: the activation at 10 µM in assay [1] turned out to be 45%. Further, on CIC-1 ion channel, the EC50 was 200 to 2000 nM.

On to `COc1c(Cl)cc2c(c1C(=O)O)C1CCC2C1` (stereo not drawn) [Compound A-16, 5-Chloro-4-methoxytricyclo[6.2.1.0^2,7]undeca-2(7),3,5-triene-3-carboxylic acid], for which the activation at 10 µM in assay [1] was 43%. For the same compound, the EC50 on CIC-1 ion channel is 200 to 2000 nM.

Take `O=C(O)c1c(F)c(Cl)cc2c1CCCS2` [Compound A-65, 7-chloro-6-fluoro-3,4-dihydro-2H-1-benzothiopyran-5-carboxylic acid]: the activation at 10 µM in assay [1] is 49%. Also, the EC50 at CIC-1 ion channel fell in the range of 200 to 2000 nM.

Consider `CC1(C)CCc2cc(Cl)c(F)c(C(=O)O)c2O1` [Compound A-61, 6-Chloro-7-fluoro-2,2-dimethyl-3,4-dihydro-2H-1-benzopyran-8-carboxylic acid], for which, in assay [1], the activation at 10 µM stood at 63%. The EC50 at CIC-1 ion channel was in the range of 200 to 2000 nM.

On to `COc1c(Cl)cc2c(c1C(=O)O)CCC2` [Compound A-6, 6-Chloro-5-methoxy-2,3-dihydro-1H-indene-4-carboxylic acid], for which the activation at 10 µM in assay [1] was 42%. Also, at CIC-1 ion channel, the EC50 is 200 to 2000 nM.

As to `Cc1c(Cl)cc2c(c1C(=O)O)OCCC2` [Compound A-14, 6-Chloro-7-methyl-3,4-dihydro-2H-1-benzopyran-8-carboxylic acid], the activation at 50 µM in assay [1] was 39%. Moreover, the EC50 at CIC-1 ion channel fell in the range of 10000 to 20000 nM.

Turning to `Cc1c(Cl)cc2c(c1C(=O)O)CCCC2` [Compound A-9, 3-Chloro-2-methyl-5,6,7,8-tetrahydronaphthalene-1-carboxylic acid], the activation at 10 µM in assay [1] was determined as 14%. The EC50 on CIC-1 ion channel lay in the range of 2000 to 10000 nM.

With `COc1c(Cl)cc2c(c1C(=O)O)C(F)(F)CCC2` [Compound A-59, 3-chloro-8,8-difluoro-2-methoxy-5,6,7,8-tetrahydronaphthalene-1-carboxylic acid], in assay [1], the activation at 10 µM turned out to be 53%. In addition, the 50% effective concentration (EC50) on CIC-1 ion channel is 2000 to 10000 nM.

Consider `O=C(O)c1cc(Cl)c(F)c2c1CCCC2` [Compound A-17, 3-Chloro-4-fluoro-5,6,7,8-tetrahydronaphthalene-1-carboxylic acid], for which the activation at 50 µM in assay [1] turned out to be 41%. In addition, the EC50 at CIC-1 ion channel fell in the range of 10000 to 20000 nM.
